Source: patent US10377709B2, “Carboxamide derivatives and the use thereof as medicaments for the treatment of hepatitis B” (Janssen Sciences Ireland UC, priority 2013, dated 2019)

Experiments:
HBV [1] = experiment: Anti-HBV activity in HepG2.117 inducible HBV producing cell line (intracellular HBV DNA, realtime PCR); assay type: cell-based, Hepatitis B virus; details: HepG2.117 cells (Tet-off), 3 days of treatment, intracellular HBV DNA by realtime PCR
[2] = Cytotoxicity in HepG2 cells (Resazurin assay); assay type: cell-based; details: human, incubated 4 days, viability by Resazurin assay
HBV [3] = experiment: Anti-HBV activity in HepG2.2.15 stable transfected cell line (HBV DNA from secreted virions, realtime PCR); assay type: cell-based, Hepatitis B virus; details: HepG2.2.15 cells, 6 days of treatment, HBV DNA from secreted virions by realtime PCR
[4] = Hepatitis B virus, HepG2.117, 72 h
[5] = Hepatitis B virus, HepG2.2.15, 144 h

Structure (SMILES) | EC50 (HBV [1]) [nM] | CC50 at 4 days [2] [nM] | EC50 (HBV [3]) [nM] | EC50 (HBV [1]; [4]) [nM] | EC50 (HBV [3]; [5]) [nM]
Cc1cc(NC(=O)C2CC(C)N(C(=O)C(=O)NC3(C)COC3)C2)ccc1F (single isomer, unassigned) [Compound 17a, N-(4-fluoro-3-methylphenyl)-5-methyl-1-(2-((3-methyloxetan-3-yl)amino)-2-oxoacetyl)pyrrolidine-3-carboxamide] | > 1000 | > 25000 | > 1000 | – | –
CC(C)NC(=O)C(=O)N1CCC(C(=O)Nc2cc(F)c(F)c(Cl)c2)[C@@H]1C (single isomer, unassigned) [Compound 29a] | 11 | > 25000 | 10 | – | –
CC1C(C(=O)Nc2ccc(F)c(Cl)c2F)CCCN1C(=O)C(=O)N[C@H](C)C(F)(F)F (single isomer, unassigned) [Compound 35a] | > 1000 | > 25000 | > 1000 | – | –
C[C@@H](NC(=O)C(=O)N1CC[C@H](C(=O)Nc2cc(F)c(F)c(Br)c2)C1)C(F)(F)F [Compound 1, (S)-N-(3-bromo-4,5-difluorophenyl)-1-(2-oxo-2-(((R)-1,1,1-trifluoropropan-2-yl)amino)acetyl)pyrrolidine-3-carboxamide] | – | > 25000 | – | 18 | 20
CC1(NC(=O)C(=O)N2CC[C@H](C(=O)Nc3cc(F)c(F)c(Br)c3)C2)COC1 [Compound 2, (S)-N-(3-bromo-4,5-difluorophenyl)-1-(2-((3-methyloxetan-3-yl)amino)-2-oxoacetyl)pyrrolidine-3-carboxamide] | – | > 25000 | – | 33 | 70
CC(C)(C)NC(=O)C(=O)N1CC[C@H](C(=O)Nc2cc(F)c(F)c(Br)c2)C1 [Compound 3, (S)-N-(3-bromo-4,5-difluorophenyl)-1-(2-(tert-butylamino)-2-oxoacetyl)-pyrrolidine-3-carboxamide] | – | > 25000 | – | 26 | 141
Cc1cc(NC(=O)[C@H]2CCN(C(=O)C(=O)NC(C)C)C2)ccc1F [Compound 4, (3S)-N-(4-Fluoro-3-methylphenyl)-1-{[(1-methylethyl)amino] (oxo)acetyl}-pyrrolidine-3-carboxamide] | – | > 25000 | – | 71 | 126
Cc1cc(NC(=O)[C@H]2CCN(C(=O)C(=O)NC3CCCC3)C2)ccc1F [Compound 5] | – | > 25000 | – | 46 | 112
Cc1cc(NC(=O)[C@H]2CCN(C(=O)C(=O)N[C@H](C)CO)C2)ccc1F [Compound 6, (S)-N-(4-fluoro-3-methylphenyl)-1-(2-(((R)-1-hydroxypropan-2-yl)amino)-2-oxoacetyl)pyrrolidine-3-carboxamide] | – | > 25000 | – | 257 | 301
Cc1cc(NC(=O)[C@H]2CCN(C(=O)C(=O)NC3(C)COC3)C2)ccc1F [Compound 7, (3S)-N-(4-Fluoro-3-methylphenyl)-1-{[(3-methyloxetan-3-yl)amino]-(oxo)acetyl}pyrrolidine-3-carboxamide] | – | > 25000 | – | 117 | 67
CC[C@@H](C)NC(=O)C(=O)N1CC[C@H](C(=O)Nc2ccc(F)c(C)c2)C1 [Compound 8, (3S)-N-(4-Fluoro-3-methylphenyl)-1-[{[(1R)-1-methylpropyl]amino}(oxo)acetyl]pyrrolidine-3-carboxamide] | – | > 25000 | – | 38 | 65
Cc1cc(NC(=O)[C@H]2CCN(C(=O)C(=O)N[C@H]3CCOC3)C2)ccc1F [Compound 9, (3S)-N-(4-Fluoro-3-methylphenyl)-1-{oxo[(3S)-tetrahydrofuran-3-ylamino]-acetyl}pyrrolidine-3-carboxamide] | – | > 25000 | – | 134 | 120
Cc1cc(NC(=O)[C@H]2CCN(C(=O)C(=O)NC3(C)COC3)[C@H]2C)ccc1F [Compound 10, (2S,3S)-N-(4-Fluoro-3-methylphenyl)-2-methyl-1-{[(3-methyloxetan-3-yl)-amino](oxo)acetyl}pyrrolidine-3-carboxamide] | – | > 25000 | – | 9 | 8
C[C@@H](NC(=O)C(=O)N1CC[C@H](C(=O)Nc2cc(F)c(F)c(Cl)c2)C1)C(F)(F)F [Compound 11, (S)-N-(3-chloro-4,5-difluorophenyl)-1-(2-oxo-2-(((R)-1,1,1-trifluoropropan-2-yl)amino)acetyl)pyrrolidine-3-carboxamide] | – | > 25000 | – | 17 | 32
Cc1cc(NC(=O)[C@H]2CCCN(C(=O)C(=O)NC(C)C)C2)ccc1F [Compound 12, (3S)-N-(4-Fluoro-3-methylphenyl)-1-{[(1-methylethyl)amino] (oxo)-acetyl}piperidine-3-carboxamide] | – | > 25000 | – | 115 | 321
O=C(NC1(C(F)(F)F)CC1)C(=O)N1CC[C@H](C(=O)Nc2cc(F)c(F)c(Cl)c2)C1 [Compound 13, (S)-N-(3-chloro-4,5-difluorophenyl)-1-(2-oxo-2-((1-(trifluoromethyl)cyclopropyl)amino)acetyl)pyrrolidine-3-carboxamide] | – | > 25000 | – | 35 | 20
C[C@@H](NC(=O)C(=O)N1CC[C@H](C(=O)Nc2ccc(F)c(C(F)(F)F)c2)C1)C(F)(F)F [Compound 14, (S)-N-(4-fluoro-3-(trifluoromethyl)phenyl)-1-(2-oxo-2-(((R)-1,1,1-trifluoropropan-2-yl)amino)acetyl)pyrrolidine-3-carboxamide] | – | > 25000 | – | 45 | 64
C[C@@H](NC(=O)C(=O)N1CC[C@H](C(=O)Nc2ccc(F)c(Cl)c2)C1)C(F)(F)F [Compound 15, (S)-N-(3-chloro-4-fluorophenyl)-1-(2-oxo-2-(((R)-1,1,1-trifluoropropan-2-yl)amino)acetyl)pyrrolidine-3-carboxamide] | – | > 25000 | – | 47 | 25
CC(C)(NC(=O)C(=O)N1CC[C@H](C(=O)Nc2cc(F)c(F)c(Cl)c2)C1)C(F)(F)F [Compound 16, (S)-N-(3-chloro-4,5-difluorophenyl)-1-(2-oxo-2-((1,1,1-trifluoro-2-methylpropan-2-yl)amino)acetyl)pyrrolidine-3-carboxamide] | – | > 25000 | – | 35 | 58
C[C@@H](NC(=O)C(=O)N1CCC(C(=O)Nc2cc(F)c(F)c(Cl)c2)C1(C)C)C(F)(F)F (stereo partly drawn) [Compound 18, N-(3-chloro-4,5-difluoro-phenyl)-2,2-dimethyl-1-[2-oxo-2-[[(1R)-2,2,2-trifluoro-1-methyl-ethyl]amino]acetyl]pyrrolidine-3-carboxamide] | – | > 25000 | – | 670 | –
CC(C)(C)NC(=O)C(=O)N1CC[C@H](C(=O)Nc2ccc(F)c(Cl)c2F)C1 [Compound 19, (3S)-1-[2-(tert-butylamino)-2-oxo-acetyl]-N-(3-chloro-2,4-difluoro-phenyl)pyrrolidine-3-carboxamide] | – | > 25000 | – | 449 | 496
CC(C)(C)NC(=O)C(=O)N1CC[C@H](C(=O)Nc2ccc(F)c(C#N)c2)C1 [Compound 20, (3S)-1-[2-(tert-butylamino)-2-oxo-acetyl]-N-(3-cyano-4-fluorophenyl)-pyrrolidine-3-carboxamide] | – | > 25000 | – | 645 | 289
C[C@@H](NC(=O)C(=O)N1CC[C@H](C(=O)Nc2ccc(F)c(Cl)c2F)C1)C(F)(F)F [Compound 21, (3S)-N-(3-chloro-2,4-difluoro-phenyl)-1-[2-oxo-2-[[(1R)-2,2,2-trifluoro-1-methyl-ethyl]amino]acetyl]pyrrolidine-3-carboxamide] | – | > 25000 | – | 63 | 63
C[C@@H](NC(=O)C(=O)N1CC[C@H](C(=O)Nc2ccc(F)c(C#N)c2)C1)C(F)(F)F [Compound 22, (3S)-N-(3-cyano-4-fluoro-phenyl)-1-[2-oxo-2-[[(1R)-2,2,2-trifluoro-1-methyl-ethyl]amino]acetyl]pyrrolidine-3-carboxamide] | – | > 25000 | – | 128 | 110
C[C@H]1[C@H](C(=O)Nc2cc(F)c(F)c(Cl)c2)CCN1C(=O)C(=O)N[C@H](C)C(F)(F)F [Compound 33a, (2S,3R)—N-(3-chloro-4,5-difluoro-phenyl)-2-methyl-1-[2-oxo-2-[[(1R)-2,2,2-trifluoro-1-methyl-ethyl]amino]acetyl]pyrrolidine-3-carboxamide] | – | > 25000 | – | > 500 | –
C[C@H]1[C@@H](C(=O)Nc2cc(F)c(F)c(Cl)c2)CCN1C(=O)C(=O)N[C@H](C)C(F)(F)F [Compound 33b, (2S,3S)-N-(3-chloro-4,5-difluoro-phenyl)-2-methyl-1-[2-oxo-2-[[(1R)-2,2,2-trifluoro-1-methyl-ethyl]amino]acetyl]pyrrolidine-3-carboxamide] | – | > 25000 | – | 5 | –
C[C@H]1[C@H](C(=O)Nc2cc(F)c(F)c(F)c2)CCN1C(=O)C(=O)N[C@H](C)C(F)(F)F [Compound 34a, (2S,3R)-2-methyl-1-[2-oxo-2-[[(1R)-2,2,2-trifluoro-1-methyl-ethyl]amino]acetyl]-N-(3,4,5-trifluorophenyl)pyrrolidine-3-carboxamide] | – | > 25000 | – | > 500 | –
C[C@H]1[C@@H](C(=O)Nc2cc(F)c(F)c(F)c2)CCN1C(=O)C(=O)N[C@H](C)C(F)(F)F [Compound 34b, (2S,3S)-2-methyl-1-[2-oxo-2-[[(1R)-2,2,2-trifluoro-1-methyl-ethyl]amino]acetyl]-N-(3,4,5-trifluorophenyl)pyrrolidine-3-carboxamide] | – | > 25000 | – | 4 | –
